# Patent US10975056B2 (GlaxoSmithKline Intellectual Property Development Limited, priority 2016, dated 2021)
# Several values for one entry are separate records, joined by “and”; a condition that tells them apart may be missing. Identical values can stand only once. Counter-ions that a name gives are not always drawn. Like-named read-outs stand apart in the source and are kept apart here.
# Experiments:
# DNMT1 = DNMT1 (Homo sapiens, UniProt P26358); test: DNMT1 biochemical activity, breaklight assay and/or SPA assay
# [1] = tested on: erythroid progenitor cells (EPCs); test: Fetal hemoglobin (HbF) ELISA in day 7 erythroid progenitor cells; assay type: cell-based, human; conditions: Homo sapiens, Erythroid progenitor cell, HbF ELISA, day 7 EPCs, 5 days; read-out: EPC ELISA (pEC50 category) (converted);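 further: for fetal hemoglobin induction normalized to vehicle-treated cells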
# Procedure, shortened: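 HbF induction was read by anti-HbF sandwich ELISA (HRP/TMB, OD450) on lysates and normalized to vehicle-treated cells. Cells were day 7 erythroid progenitors derived from human bone marrow CD34+ cells, seeded at 1,000/well with 3 U/mL rhEPO. Compound was given for 5 days at 37 °C at final concentrations […].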
# [2] = binned activity in either the breaklight or the SPA assay
# [3] = binned activity in either the breaklight or the SPA assay, read-out: DNMT1 BioChemical (pIC50 category) (converted)
# Chain of DNMT1 (P26358 whole entry, looked up): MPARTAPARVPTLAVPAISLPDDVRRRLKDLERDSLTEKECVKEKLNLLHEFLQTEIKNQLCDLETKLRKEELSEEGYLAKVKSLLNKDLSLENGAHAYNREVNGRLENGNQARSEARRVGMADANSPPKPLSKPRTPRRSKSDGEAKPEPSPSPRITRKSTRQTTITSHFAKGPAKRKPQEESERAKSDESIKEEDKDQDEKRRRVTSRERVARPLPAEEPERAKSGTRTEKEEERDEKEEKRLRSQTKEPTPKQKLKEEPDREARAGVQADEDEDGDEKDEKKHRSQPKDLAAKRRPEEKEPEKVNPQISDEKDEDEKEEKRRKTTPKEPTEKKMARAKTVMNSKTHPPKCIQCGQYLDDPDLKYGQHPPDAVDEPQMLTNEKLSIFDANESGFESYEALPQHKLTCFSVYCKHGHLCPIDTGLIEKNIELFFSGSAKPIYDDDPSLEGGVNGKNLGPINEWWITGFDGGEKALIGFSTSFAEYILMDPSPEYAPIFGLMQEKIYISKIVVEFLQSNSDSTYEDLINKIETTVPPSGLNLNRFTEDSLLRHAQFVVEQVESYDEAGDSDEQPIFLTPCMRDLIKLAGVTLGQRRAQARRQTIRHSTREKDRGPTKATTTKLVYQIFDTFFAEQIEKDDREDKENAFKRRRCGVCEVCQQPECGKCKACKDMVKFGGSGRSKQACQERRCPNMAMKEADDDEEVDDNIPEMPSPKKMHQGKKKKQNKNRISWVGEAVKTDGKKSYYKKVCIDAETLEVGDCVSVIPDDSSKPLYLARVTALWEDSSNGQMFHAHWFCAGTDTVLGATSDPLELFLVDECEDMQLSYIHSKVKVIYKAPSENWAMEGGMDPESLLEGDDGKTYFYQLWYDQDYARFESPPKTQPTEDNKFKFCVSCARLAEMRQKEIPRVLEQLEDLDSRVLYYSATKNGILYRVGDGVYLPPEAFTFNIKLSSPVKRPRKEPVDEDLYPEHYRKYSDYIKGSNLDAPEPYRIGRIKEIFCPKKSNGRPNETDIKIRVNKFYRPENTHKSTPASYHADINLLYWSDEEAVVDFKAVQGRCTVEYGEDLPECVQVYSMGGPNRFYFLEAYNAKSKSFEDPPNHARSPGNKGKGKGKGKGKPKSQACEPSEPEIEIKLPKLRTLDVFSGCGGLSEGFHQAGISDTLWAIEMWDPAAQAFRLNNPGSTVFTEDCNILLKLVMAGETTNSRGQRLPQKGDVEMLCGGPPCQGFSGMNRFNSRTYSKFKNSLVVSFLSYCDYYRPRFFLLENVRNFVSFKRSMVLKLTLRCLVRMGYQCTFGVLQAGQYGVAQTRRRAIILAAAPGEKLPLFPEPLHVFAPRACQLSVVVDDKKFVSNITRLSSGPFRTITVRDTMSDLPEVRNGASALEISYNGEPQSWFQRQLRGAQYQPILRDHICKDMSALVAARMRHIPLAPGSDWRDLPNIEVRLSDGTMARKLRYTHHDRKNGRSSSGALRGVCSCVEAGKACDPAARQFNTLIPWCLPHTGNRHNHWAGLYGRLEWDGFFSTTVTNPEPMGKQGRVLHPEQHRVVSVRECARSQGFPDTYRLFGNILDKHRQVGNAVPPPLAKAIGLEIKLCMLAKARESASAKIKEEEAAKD
SMILES,DNMT1 BioChemical (pIC50 category) (DNMT1; [2]),EC50 [1] [nM],IC50 (DNMT1; [3]) [nM],also measured
"CCc1c(C#N)c(SC(C(N)=O)c2ccc(F)cc2)nc(N2CCC[C@H](CNCC(C)(C)C)C2)c1C#N (stereo partly drawn) [Example 594, 2-((3,5-dicyano-4-ethyl-6-((R)-3-((neopentylamino)methyl)piperidin-1-yl)pyridin-2-yl)thio)-2-(4-fluorophenyl)acetamide]",D (Category D: ≥6.5),< 316,–,–
CCc1c(C#N)c(SC(C(N)=O)c2ccccc2)nc(N2CCC(N3CCC(N)C3=O)CC2)c1C#N (centres unmarked) [Example 270],D (Category D: ≥6.5),1000 to 31600,–,–
"CCc1c(C#N)c(SC(C(N)=O)c2ccccc2)nc(N2CCC(N3CCC[C@@H]3CO)CC2)c1C#N (single isomer, unassigned) [Example 464]",D (Category D: ≥6.5),< 316,–,–
"CCc1c(C)c(N2CCNCC2)nc(SC(C(N)=O)c2ccccc2)c1C#N (centres unmarked) [Example 293, 2-((3-Cyano-4-ethyl-5-methyl-6-(piperazin-1-yl)pyridin-2-yl)thio)-2-phenylacetamide]",–,> 31600,316 to 1000,–
"CCc1c(C#N)c(SC(C(N)=O)c2cccc(C(F)(F)F)c2)nc(N2CCCN(C)CC2)c1C#N (centres unmarked) [Example 223, 2-((3,5-Dicyano-4-ethyl-6-(4-methyl-1,4-diazepan-1-yl)pyridin-2-yl)thio)-2-(3-(trifluoromethyl)phenyl)acetamide]",–,1000 to 31600,316 to 1000,–
"CCc1c(C#N)c(SC(C(N)=O)c2ccc(F)cc2)nc(N(C)C)c1C#N (centres unmarked) [Example 198, 2-((3,5-Dicyano-6-(dimethylamino)-4-ethylpyridin-2-yl)thio)-2-(4-fluorophenyl)acetamide]",D (Category D: ≥6.5),316 to 1000,–,–
"CCc1c(C#N)c(S[C@@H](C(N)=O)c2ccccc2)nc(N2CC[C@H](OP(=O)(O)O)C2)c1C#N [Example 418, (S)-1-(6-(((R-2-amino-2-oxo-1-phenylethyl)thio-3,5-dicyano-4-ethylpyridin-2-yl)pyrrolidin-3-yldihydrogen phosphate]",–,> 31600,1000 to 31600,–
"CCc1c(C#N)c(SC(C(N)=O)c2ccccc2)nc(N2CCCN3CCCC3C2)c1C#N (centres unmarked) [Example 117, 2-((3,5-Dicyano-4-ethyl-6-(hexahydro-1H-pyrrolo[1,2-a][1,4]diazepin-2(3H)-yl)pyridin-2-yl)thio)-2-phenylacetamide]",–,< 316,316 to 1000,"IC50 (DNMT1; breaklight assay and/or SPA assay, repeated experimental runs, read-out: average pIC50 against DNMT1 (converted)): 316 to 1000 nM"
"CCc1c(C#N)c(SC(C(N)=O)c2ccccc2)nc(N2CCC(CN)C2)c1C#N (centres unmarked) [Example 525, 2-((6-(3-(aminomethyl)pyrrolidin-1-yl)-3,5-dicyano-4-ethylpyridin-2-yl)thio)-2-phenylacetamide]",D (Category D: ≥6.5),< 316,–,–
"CCc1c(C#N)c(SCc2ccc(CNC(=O)CN)cc2)nc(N(C)C)c1C#N [Example 268, 2-Amino-N-(4-(((3,5-dicyano-6-(dimethylamino)-4-ethylpyridin-2-yl)thio)methyl)benzyl)acetamide]",–,1000 to 31600,1000 to 31600,–
"CCc1c(C#N)c(SC(C(N)=O)c2ccnc(F)c2)nc(N2CCCN(C)CC2)c1C#N (centres unmarked) [Example 239, 2-((3,5-Dicyano-4-ethyl-6-(4-methyl-1,4-diazepan-1-yl)pyridin-2-yl)thio)-2-(2-fluoropyridin-4-yl)acetamide]",–,> 31600,1000 to 31600,–
"CCc1c(C#N)c(SC(C(N)=O)c2ccccc2F)nc(N2CC[C@H](O)C2)c1C#N (stereo partly drawn) [Example 682, 2-((3,5-dicyano-4-ethyl-6-((S)-3-hydroxypyrrolidin-1-yl)pyridin-2-yl)thio)-2-(2-fluorophenyl)acetamide]",D (Category D: ≥6.5),1000 to 31600,–,–
"CCc1c(C#N)c(SC(C(N)=O)c2ccccc2)nc(N2CCC3(CCN(C)C3)CC2)c1C#N (centres unmarked) [Example 215, 2-((3,5-Dicyano-4-ethyl6-(2-methyl-2,8-diazaspiro[4.5]decan-8-yl)pyridin-2-yl)thio)-2-phenylacetamide]",D (Category D: ≥6.5),< 316,–,–
"CCc1c(C#N)c(SC(C(N)=O)c2ccccc2)nc(N2CCC(NC3CC3)CC2)c1C#N (centres unmarked) [Example 552, 2-((3,5-dicyano-6-(4-(cyclopropylamino)piperidin-1-yl)-4-ethylpyridin-2-yl)thio)-2-phenylacetamide]",D (Category D: ≥6.5),< 316,–,–
"CCc1c(C#N)c(SC(C(N)=O)c2ccccc2)nc(N(C)C2CC(N)C2)c1C#N (centres unmarked) [Example 498, 2-((6-((3-aminocyclobutyl)(methyl)amino)-3,5-dicyano-4-ethylpyridin-2-yl)thio)-2-phenylacetamide]",D (Category D: ≥6.5),316 to 1000,–,–
"N#Cc1c(SC(C(N)=O)c2ccccc2)nc(N2CC(O)C2)c(C#N)c1C1CC1 (centres unmarked) [Example 387, 2-((3,5-Dicyano-4-cyclopropyl-6-(13-hydroxyazetidin-1-yl)pyridin-2-yl)thio)-2-phenylacetamide]",D (Category D: ≥6.5),1000 to 31600,–,–
"CCc1c(Cl)c(SC(C(N)=O)c2ccccc2)nc(N2CCNCC2)c1Cl (centres unmarked) [Example 324, 2-((3,5-Dichloro-4-ethyl-6-(piperazin-1-yl)pyridin-2-yl)thio)-2-phenylacetamide]",–,> 31600,–,"IC50 (DNMT1; DNMT1 BioChemical (pIC50 category), binned activity in either the breaklight or the SPA assay): 316 to 1000 nM; IC50 (DNMT1; average pIC50 against DNMT1, breaklight assay and/or SPA assay, repeated experimental runs): 316 to 1000 nM and 631 nM"
CCc1c(C#N)c(SC(C(N)=O)c2ccccc2)nc(N2CCO[C@H](CNCC(C)(C)C)C2)c1C#N (some centres unmarked) [Example 555],D (Category D: ≥6.5),< 316,–,–
"CCc1c(C#N)c(SC(C(N)=O)c2ccccc2)nc(N(C)CCN2CC[C@H](N(C)C)C2)c1C#N (stereo partly drawn) [Example 517, 2-((3,5-dicyano-6-((2-((S)-3-(dimethylamino)pyrrolidin-1-yl)ethyl)(methyl)amino)-4-ethylpyridin-2-yl)thio)-2-phenylacetamide]",D (Category D: ≥6.5),< 316,–,–
"CCc1c(C#N)c(SC(C(N)=O)c2ccccc2)nc(N(C)CC(=O)NC(CO)CO)c1C#N (centres unmarked) [Example 658, 2-((6-((2-amino-2-oxo-1-phenylethyl)thio)-3,5-dicyano-4-ethylpyridin-2-yl)(methyl)amino)-N-(1,3-dihydroxypropan-2-yl)acetamide]",D (Category D: ≥6.5),1000 to 31600,–,–
"CCc1c(C#N)c(SC(C(N)=O)c2ccccc2)nc(N2CCC3(CCCNC3)CC2)c1C#N (centres unmarked) [Example 116, 2-((3,5-Dicyano-4-ethyl-6-(2,9-diazaspiro[5.5]undecan-9-yl)pyridin-2-yl)thio)-2-phenylacetamide]",D (Category D: ≥6.5),< 316,–,–
"CCc1c(C#N)c(S[C@@H](C(N)=O)c2ccccc2)nc(N(C)CCCO)c1C#N [Example 695, (R)-2-((3,5-dicyano-4-ethyl-6-((3-hydroxypropyl)(methyl)amino)pyridin-2-yl)thio)-2-phenylacetamide]",D (Category D: ≥6.5),1000 to 31600,–,–
"CCc1c(C#N)c(SC(C(N)=O)c2ccccc2)nc(N2CCC[C@H](N)C2)c1C#N (stereo partly drawn) [Example 612, 2-((6-((S)-3-aminopiperidin-1-yl)-3,5-dicyano-4-ethylpyridin-2-yl)thio)-2-phenylacetamide]",D (Category D: ≥6.5),< 316,–,–
"CCc1c(C#N)c(SCc2ccc(N)c(F)c2)nc(N2CCCN(C)CC2)c1C#N [Example 360, 2-((4-Amino-3-fluorobenzyl)thio)-4-ethyl-6-(4-methyl-1,4-diazepan-1-yl)pyridine-3,5-dicarbonitrile]",–,1000 to 31600,316 to 1000,–
"CCc1c(C#N)c(SC(C(N)=O)c2ccccc2)nc(N2CCC[C@H](NCC(F)F)C2)c1C#N (stereo partly drawn) [Example 690, 2-((3,5-dicyano-6-((S)-3-((2,2-difluoroethyl)amino)piperidin-1-yl)-4-ethylpyridin-2-yl)thio)-2-phenylacetamide]",D (Category D: ≥6.5),1000 to 31600,–,–
"CCc1c(C#N)c(SCc2ccc(N(C)S(C)(=O)=O)cc2)nc(N2CCC(NC(=O)CN)CC2)c1C#N [Example 590, 2-amino-N-(1-(3,5-dicyano-4-ethyl-6-((4-(N-methylmethylsulfonamido)benzyl)thio)pyridin-2-yl)piperidin-4-yl)acetamide]",D (Category D: ≥6.5),1000 to 31600,–,–
"CCc1c(C#N)c(N[C@@H](C(N)=O)c2ccccc2)nc(N2CCCN(CCCN3CCCC3)CC2)c1C#N [Example 163, (R)-2-((3,5-Dicyano-4-ethyl-6-(4-(3-(pyrrolidin-1-yl)propyl)-1,4-diazepan-1-yl)pyridin-2-yl)amino)-2-phenylacetamide]",–,> 31600,1000 to 31600,–
"CCc1c(C#N)c(SCc2ccc(S(N)(=O)=O)cc2)nc(N2CCC(NC(=O)CN)CC2)c1C#N [Example 339, 2-Amino-N-(1-(3,5-dicyano-4-ethyl-6-((4-sulfamoylbenzyl)thio)pyridin-2-yl)piperidin-4-yl)acetamide hydrochloride]",D (Category D: ≥6.5),1000 to 31600,–,–
CCc1c(C#N)c(SC(C(N)=O)c2c(F)cccc2F)nc(N2CC[C@H](O)C2)c1C#N (some centres unmarked) [Example 428],–,316 to 1000,316 to 1000,–
"CCc1c(C#N)c(SC(C(N)=O)c2ccccc2)nc(N2CCCN(C)CC2)c1C#N (single isomer, unassigned; isomer 1) [Example 254, 2-((3,5-dicyano-4-ethyl-6-(4-methyl-1,4-diazepan-1-yl)pyridin-2-yl)thio)-2-phenylacetamide (Isomer 1)]",–,316 to 1000,< 316,–
